Assay results: patent US6737383B1, “Herbicidal oxadiazolidines” (priority 1999, dated 2004)

Legend:
smallflower flatsedge = experiment: Test B flood test smallflower flatsedge; assay type: in vivo, Cyperus difformis
Summary of the method: (§1)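 Each value is a visual injury score relative to controls, with 10 meaning complete control and 0 no effect. Evaluation took place twelve to sixteen days after the 2-leaf-stage plants were treated and kept in the greenhouse.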

cocklebur = experiment: Test B pre/postemergence cocklebur; assay type: in vivo, Xanthium strumarium
Summary of the method: (§2)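 Test chemicals in a non-phytotoxic solvent mixture with surfactant were sprayed preemergence onto planted seeds and postemergence onto plants 2 to 18 cm tall (1- to 4-leaf stage). After twelve to sixteen days in a greenhouse, injury was visually rated against untreated controls from 0 (no effect) to 10 (complete control).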

pigweed = experiment: Test B pre/postemergence pigweed; assay type: in vivo, Amaranthus retroflexus
Summary of the method: as §2

corn = experiment: Test B pre/postemergence corn; assay type: in vivo, Zea mays
Summary of the method: as §2

velvetleaf = experiment: Test B pre/postemergence velvetleaf; assay type: in vivo, Abutilon theophrasti
Summary of the method: as §2

crabgrass = experiment: Test B pre/postemergence crabgrass; assay type: in vivo, Digitaria sanguinalis
Summary of the method: as §2

purple nutsedge = experiment: Test B pre/postemergence purple nutsedge; assay type: in vivo, Cyperus rotundus
Summary of the method: as §2

surinam grass = experiment: Test B pre/postemergence surinam grass; assay type: in vivo, Brachiaria decumbens
Summary of the method: as §2

giant foxtail = experiment: Test B pre/postemergence giant foxtail; assay type: in vivo, Setaria faberii
Summary of the method: as §2

duck salad = experiment: Test B flood test duck salad; assay type: in vivo, Heteranthera limosa
Summary of the method: as §1

sugar beet = experiment: Test B pre/postemergence sugar beet; assay type: in vivo, Beta vulgaris
Summary of the method: as §2

morningglory = experiment: Test B pre/postemergence morningglory; assay type: in vivo, Ipomoea hederacea
Summary of the method: as §2

blackgrass = experiment: Test B pre/postemergence blackgrass; assay type: in vivo, Alopecurus myosuroides
Summary of the method: as §2

rice = experiment: Test B flood test rice; assay type: in vivo, Oryza sativa
Summary of the method: as §1

wheat = experiment: Test B pre/postemergence wheat; assay type: in vivo, Triticum aestivum
Summary of the method: as §2

rape = experiment: Test B pre/postemergence rape; assay type: in vivo, Brassica napus
Summary of the method: as §2

[1] = Rate 62 g/ha, headed Pre-emergence (flood test species), scale 0 to 10 (0 no effect, 10 complete control)
[2] = Rate 125 g/ha, Pre-emergence, flood test species, scale 0 to 10 where 0 is no effect and 10 is complete control
[3] = Rate 250 g/ha, Pre-emergence, flood-test species, scale 0 to 10, 0 is no effect, 10 is complete control
[4] = Rate 500 g/ha, Pre-emergence, flood test species, scale 0 to 10 (0 no effect, 10 complete control)
[5] = Preemergence, Rate 62 g/ha, scale of 0 to 10 where 0 is no effect and 10 is complete control
[6] = Preemergence, Rate 250 g/ha, scale of 0 to 10 where 0 is no effect and 10 is complete control
[7] = Preemergence, Rate 500 g/ha, scale of 0 to 10 where 0 is no effect and 10 is complete control
[8] = Rate 62 g/ha, Postemergence, scale of 0 to 10 where 0 is no effect and 10 is complete control
[9] = Rate 125 g/ha, Postemergence, scale of 0 to 10 where 0 is no effect and 10 is complete control
[10] = Rate 125 g/ha, Preemergence, scale of 0 to 10 where 0 is no effect and 10 is complete control
[11] = Rate 250 g/ha, Postemergence, scale of 0 to 10 where 0 is no effect and 10 is complete control
[12] = Rate 500 g/ha, Postemergence, scale 0 to 10, 0 no effect, 10 complete control

CC(C)N(C(=O)n1oc(=O)n(C2CCCC2)c1=O)c1ccc(F)cc1 [Compound 271]
S. Flatsedge plant response rating (smallflower flatsedge; [1]): 0
S. Flatsedge plant response rating (smallflower flatsedge; [2]): 0
S. Flatsedge plant response rating (smallflower flatsedge; [3]): 0
S. Flatsedge plant response rating (smallflower flatsedge; [4]): 0
Cocklebur plant response rating (cocklebur; [5]): 0
Cocklebur plant response rating (cocklebur; [6]): 0
Plant response rating, Cocklebur (cocklebur; [7]): 4
Cocklebur plant response rating (cocklebur; [8]): 0
Cocklebur plant response rating (cocklebur; [9]): 0
Cocklebur plant response rating (cocklebur; [10]): 0
Plant response rating, Cocklebur (cocklebur; [11]): 1
Cocklebur plant response rating (cocklebur; [12]): 4
Redroot pigweed plant response rating (pigweed; [5]): 3
Redroot pigweed plant response rating (pigweed; [6]): 10
Plant response rating, Redroot pigweed (pigweed; [7]): 10
Redroot pigweed plant response rating (pigweed; [9]): 5
Redroot pigweed plant response rating (pigweed; [10]): 8
Plant response rating, Redroot pigweed (pigweed; [11]): 7
Redroot pigweed plant response rating (pigweed; [12]): 8
Corn plant response rating (corn; [5]): 0
Corn plant response rating (corn; [6]): 0
Plant response rating, Corn (corn; [7]): 3
Corn plant response rating (corn; [8]): 0
Corn plant response rating (corn; [9]): 0
Corn plant response rating (corn; [10]): 0
Plant response rating, Corn (corn; [11]): 0
Corn plant response rating (corn; [12]): 0
Velvetleaf plant response rating (velvetleaf; [5]): 2
Velvetleaf plant response rating (velvetleaf; [6]): 7
Plant response rating, Velvetleaf (velvetleaf; [7]): 8
Velvetleaf plant response rating (velvetleaf; [9]): 0
Velvetleaf plant response rating (velvetleaf; [10]): 4
Plant response rating, Velvetleaf (velvetleaf; [11]): 0
Velvetleaf plant response rating (velvetleaf; [12]): 3
Crabgrass plant response rating (crabgrass; [5]): 3
Crabgrass plant response rating (crabgrass; [6]): 7
Plant response rating, Crabgrass (crabgrass; [7]): 8
Crabgrass plant response rating (crabgrass; [9]): 1
Crabgrass plant response rating (crabgrass; [10]): 5
Plant response rating, Crabgrass (crabgrass; [11]): 1
Crabgrass plant response rating (crabgrass; [12]): 5
Nutsedge plant response rating (purple nutsedge; [5]): 0
Nutsedge plant response rating (purple nutsedge; [6]): 0
Plant response rating, Nutsedge (purple nutsedge; [7]): 0
Nutsedge plant response rating (purple nutsedge; [9]): 0
Nutsedge plant response rating (purple nutsedge; [10]): 0
Plant response rating, Nutsedge (purple nutsedge; [11]): 0
Nutsedge plant response rating (purple nutsedge; [12]): 0
B. signalgrass plant response rating (surinam grass; [5]): 8
B. signalgrass plant response rating (surinam grass; [6]): 8
Plant response rating, B. signalgrass (surinam grass; [7]): 10
B. signalgrass plant response rating (surinam grass; [8]): 0
B. signalgrass plant response rating (surinam grass; [9]): 0
B. signalgrass plant response rating (surinam grass; [10]): 8
Plant response rating, B. signalgrass (surinam grass; [11]): 2
B. signalgrass plant response rating (surinam grass; [12]): 5
Giant foxtail plant response rating (giant foxtail; [5]): 8
Giant foxtail plant response rating (giant foxtail; [6]): 10
Plant response rating, Giant foxtail (giant foxtail; [7]): 10
Giant foxtail plant response rating (giant foxtail; [9]): 3
Giant foxtail plant response rating (giant foxtail; [10]): 10
Plant response rating, Giant foxtail (giant foxtail; [11]): 4
Giant foxtail plant response rating (giant foxtail; [12]): 7
Ducksalad plant response rating (duck salad; [1]): 0
Ducksalad plant response rating (duck salad; [2]): 0
Ducksalad plant response rating (duck salad; [3]): 0
Ducksalad plant response rating (duck salad; [4]): 0
Sugarbeets plant response rating (sugar beet; [5]): 5
Sugarbeets plant response rating (sugar beet; [6]): 8
Plant response rating, Sugarbeets (sugar beet; [7]): 8
Sugarbeets plant response rating (sugar beet; [9]): 2
Sugarbeets plant response rating (sugar beet; [10]): 6
Plant response rating, Sugarbeets (sugar beet; [11]): 4
Sugarbeets plant response rating (sugar beet; [12]): 6
Morningglory plant response rating (morningglory; [5]): 1
Morningglory plant response rating (morningglory; [6]): 2
Plant response rating, Morningglory (morningglory; [7]): 7
Morningglory plant response rating (morningglory; [9]): 2
Morningglory plant response rating (morningglory; [10]): 1
Plant response rating, Morningglory (morningglory; [11]): 8
Morningglory plant response rating (morningglory; [12]): 8
Blackgrass plant response rating (blackgrass; [5]): 8
Blackgrass plant response rating (blackgrass; [6]): 10
Plant response rating, Blackgrass (blackgrass; [7]): 10
Blackgrass plant response rating (blackgrass; [8]): 3
Blackgrass plant response rating (blackgrass; [9]): 4
Blackgrass plant response rating (blackgrass; [10]): 9
Plant response rating, Blackgrass (blackgrass; [11]): 8
Blackgrass plant response rating (blackgrass; [12]): 8
Rice plant response rating (rice; [1]): 0
Rice plant response rating (rice; [2]): 0
Rice plant response rating (rice; [3]): 0
Rice plant response rating (rice; [4]): 0
Wheat plant response rating (wheat; [5]): 0
Wheat plant response rating (wheat; [6]): 0
Plant response rating, Wheat (wheat; [7]): 3
Wheat plant response rating (wheat; [9]): 0
Wheat plant response rating (wheat; [10]): 0
Plant response rating, Wheat (wheat; [11]): 0
Wheat plant response rating (wheat; [12]): 0
Rape plant response rating (rape; [5]): 2
Rape plant response rating (rape; [6]): 10
Plant response rating, Rape (rape; [7]): 10
Rape plant response rating (rape; [9]): 3
Rape plant response rating (rape; [10]): 4
Plant response rating, Rape (rape; [11]): 4
Rape plant response rating (rape; [12]): 6
